Assay results taken from patent US7109329B2, “Neurologically active compounds and compounds with multiple activities” (priority 1988, dated 2006).

test: Reversal of guanabenz-induced anesthesia and hypothermia by antagonists; type: in vivo, rat; conditions: guanabenz-treated rats (4 mg I.P.); Yohimbine 10 mg I.P.
Protocol: The effect can also be partially reversed, or reversed in stages, if desired, by administering several smaller aliquots of the antagonist.
Room temperature was 21.5° C. […] The control rats, injected only with the carrier dextrose solution, maintained a relatively constant temperature during the entire test period under identical conditions of the test.

Molecule	effect on guanabenz-induced anesthesia	effect on guanabenz-induced hypothermia (body temperature)
COC(=O)[C@@H]1[C@H]2C[C@H]3c4[nH]c5ccccc5c4CCN3C[C@@H]2CC[C@@H]1O [Yohimbine]	brought out of anesthesia	hypothermia was simultaneously reversed

same assay, conditions: rat, in vivo

Molecule	antagonism of both the hypothermic and anesthetic effects of guanidino compounds	antagonism of the hypothermic effect substantially without reducing the anesthetized condition
COC(=O)[C@@H]1[C@H]2C[C@H]3c4[nH]c5ccccc5c4CCN3C[C@@H]2CC[C@@H]1O [Yohimbine]	reverse both the hypothermic and anesthetic effects	–
Cn1c(=O)c2c(ncn2CC(=O)NC(=O)c2ccc(C(=N)N)cc2)n(C)c1=O [Compound 97, 4-(Amidino)-N-(theophylline-7-acetyl)-benzamide]	reverse both the hypothermic and anesthetic effects	–
c1ccc(CC2=NCCN2)cc1 [tolazoline]	–	effect-specific alpha2-antagonists
C=CCN1CC[C@]23c4c5ccc(O)c4O[C@H]2C(=O)CC[C@@]3(O)[C@H]1C5 [Naloxone]	not found to be a useful antagonist	–

same assay, conditions: six anesthetized rats also injected with aminophylline, then tolazoline

Molecule	reversal of anesthesia-hypothermia induced by guanabenz	time until anesthesia-hypothermia reversed and body temperature normal
c1ccc(CC2=NCCN2)cc1 [tolazoline]	completely reversed	≤ 25 min

test: Activities and properties of the compounds (Table III codes listed as Specific Properties in Table IV); conditions: not given
Excerpt: Certain of the compounds produce a profound hypothermia, but without anesthetizing. […] Table III, following, sets forth a list of the other properties of these guanidino compounds, which arise from their alpha-adrenergic agonist activity, combined with any inherent activity of the reactants chosen to achieve the final compound.
Except for items numbered 22 and 24–28 in Table III, substantially all of the guanidino compounds of this invention, as a result of their structure-activity relationship, are potent with respect to all of the above activities. However, as would be expected, various compounds have different, higher levels of, activities and properties which are listed as “Specific Properties”, with the Compounds numbered, in Table IV, below, according to the numbers in Tables I and II.

Molecule	Specific Properties
1,2-Bis(theophylline-7-acetamido)-ethane [Compound 164]	3, 15, anesthesia antagonist
3-(PGE2carbonyl)-3-estrone ester [Compound 156]	27 (some agonist activity)
3-(Guanidinoacetoxy)-estrone [Compound 148]	27

same assay, conditions: codes of Table III; […]

Molecule	Specific Properties
COc1cc(CC(=O)Oc2ccc3[nH]cc(CCN)c3c2)cc(OC)c1OC [Compound 74, 5-(3,4,5-Trimethoxyphenylacetoxy)-tryptamine]	5
N-(2,6-Dichlorbenzylidene)-3-(5-hydroxyindole)ethylamine [Compound 78]	5
17-(PGE1carbonyl)-17-cyproterone ester [Compound 154]	26 (Androgenic antagonist)
N-[(6-PGE1carbonyl)-2,5,7,8-tetramethylchroman-2-carboxamido]-1-aminophthlazine [Compound 153]	6–11 (anti-impotence)
5-Methoxy-2-methyl-3-indoleacetamidoguanidine [Compound 103]	5
N-(PGE1carboxamido)-1-aminophthalazine [Compound 152]	6–11 (anti-impotence)
4-4′-(1,2-Diethyl-1,2-ethenediyl)-4-guanidinoacetoxyphenyl-4′-(6-hydroxy-2,5,7,8-tetramethylchroman-2-carbonyl)-phenol ester [Compound 143]	27 (Estrogenic antagonist (breast cancer treatment))
N-(PGE1carboxamido)-guanidine [Compound 151]	6–11 (anti-impotence)
CC(=O)[C@@]1(OC(=O)CNC(=N)N)CCC2C3C=C(Cl)C4=CC(=O)C5C[C@@H]5C4(C)C3CCC21C (stereo partly shown) [Compound 129, 6-Chloro-1,2,Dihydro-17-guanidinoacetoxy-3′H-cyclopropa[1,2]pregna-1,4,6-triene-3,20-dione]	26 (Androgenic antagonist)
2-(2,6-Diisopropylanilino)-2-methyleneimidazole [Compound 101]	adrenergic antagonist
4-(PGE2carbonylphenyl)-4-4′(1,2-diethyl-1,2-ethenediyl)-4-phenol [Compound 157]	27 (some agonist activity)
C[N+](C)(C)CCOC(=O)CNC(=N)N [Compound 32]	1, 15, cholinergic
7-(3,5-Dichorophenylhydrazido)-7-acetyltheophylline [Compound 102]	3, 14, 16, 17 antagonist

same assay, conditions: codes of Table III; higher levels of activity

Molecule	Specific Properties
2-(3,4,5-Trimethoxybenzylidineamino)-2-methylbenzimidazole [Compound 100]	adrenergic antagonist
N=C(N)c1ccc(C(=O)NC(=O)Cc2c(Cl)cccc2Cl)cc1 [Compound 99, 4-(Amidino)-N-(2,6-dichlorophenylacetyl)-benzamide]	adrenergic antagonist
CCCCCC(O)/C=C/C1C(O)CC(=O)[C@@H]1CCCCCCCC(=O)OCC(O)COC(=O)CCCCCCC[C@H]1C(=O)CC(O)C1/C=C/C(O)CCCCC (stereo partly shown) [Compound 170, 1,3-Di-PGE1-2-propanol-ester]	8, 9, 12, Vasodilator
Cn1c(=O)c2c(ncn2CC(=O)NC(=O)c2ccc(C(=N)N)cc2)n(C)c1=O [Compound 97, 4-(Amidino)-N-(theophylline-7-acetyl)-benzamide]	3, 2, 2, antagonist, 12
[H]/N=C(\N/C(=N/[H])Nc1ccc(Cl)cc1)NC(C)C [Compound 217, reference compound]	1, 4, 6–9, 16, 17, 19 antimalarial
Guanidinamidocarbonyl-1-cholinepentanoic acid ester [Compound 167]	Adrenergic, cholinergic, 22, 23
CC/C(=C(/CC)c1ccc(OC(=O)C2(C)CCc3c(C)c(OC(=O)CNC(=N)N)c(C)c(C)c3O2)cc1)c1ccc(O)cc1 (stereo not shown) [Compound 128, 2-[4,4′-(1,2-Diethyl-1,2-ethenediyl)phenol]-6-(guanidinoacetoxy)-2,5,7,8-tetramethylchroman-2-carbonyl-2-phenol ester]	27 (Estrogenic antagonist (breast cancer treatment))
COc1cc(N=Cc2ncc[nH]2)cc(OC)c1OC [Compound 98]	adrenergic antagonist
CC/C(=C(\c1ccccc1)c1ccc(OC(=O)CNC(=N)N)cc1)c1ccccc1 [Compound 187, [Z]-2-[4-(1,2-Diphenyl-1-butenyl)-phenoxy]-guanidineacetate ester]	27, Progestin
N=C(N)NNC(=O)Cc1c[nH]c2ccc(O)cc12 [Compound 38, 5-Hydroxyindole-3-acetamidoguanidine]	5
COc1cc(CNC(=O)CNC(=N)N)ccc1O [Compound 104, N-(4-Hydroxy-3-methoxybenzyl)-guanidinoacetamide]	2 (Antispasticity and muscle relaxant)
Bis(3,17-guanidinoacetoxy)estradiaole [Compound 147]	27 (Estrogenic antagonist (breast cancer treatment))
CC(=O)[C@@]1(OC(=O)CNC(=N)N)CCC2C3CCC4=CC(=O)CCC4(C)C3CCC21C (stereo partly shown) [Compound 186, 17-(Guanidinoacetoxy)-progesterone]	1927, Progestin, androgenic
N=C(N)c1ccc(C(=O)NC(c2ccccc2)c2ccccc2)cc1 [Compound 223, N-(Diphenylmethyl)-4-(amidino)-Benzamide]	1, 2, 4, 6, 9, 10, 14, 15, 17, 23, 29 Adrenergic
17-[2-6-(N-1-Aminophthalazino-1-amidopropionyl)-2,5,7,8-tetramethylchroman-2-carbonyl]-17-cyproterone ester [Compound 140]	26 (ESP Topical to treat male pattern
CC(=O)[C@@]1(OC(=O)CNC(=N)N)CCC2C3CC(C)C4=CC(=O)CCC4(C)C3CCC21C (stereo partly shown) [Compound 185, 17-(Guanidinoacetoxy)-medroxyprogesterone]	27, Progestin, androgenic
N=C(N)c1ccc(OCCCCCOc2ccc(C(=N)N)cc2)cc1 [Compound 192, 4,4′-[Pentanediylbis(oxy)]bis-benzenecarboximidamide, reference compound]	1, 2, 8–10, 15, 29 Adrenergic antagonist
CC1(N=Cc2c(Cl)cccc2Cl)N=c2ccccc2=N1 [Compound 162, 2-(2,6-Dichlorobenzylideneamino)-2-methyl-benzimidazole]	14, 17 adrenergic antagonist, 22, 23
Cc1c(C)c2c(c(C)c1O)CCC(C)(C(=O)Nc1ccc(C(=O)NNC(=N)N)cc1)O2 (stereo not shown) [Compound 135, 4-N-(G-Hydroxy-2,5,7,8-tetramethylchroman-2-carboxamido)-4-benzamidoguanidine]	9–15
Cl.Cn1c(=O)c2c(ncn2CC(=O)Nc2nc(N)nc(NC(=O)C[N+](C)(C)C)n2)n(C)c1=O [Compound 31, 2-(Amino)-4-(1-carboxamido-N,N,N-trimethylmethaniminium)-6-(theophylline-7-acetamido)-1,3,5-s-triazine]	2, 3, 15, cholinergic
Bis(3,17-PGE2carbonyl)-estradiole ester [Compound 158]	27 (Estrogenic antagonist (breast cancer treatment))
CC(=O)[C@@]1(OC(=O)CNC(=N)N)CCC2C3C=C(C)C4=CC(=O)CCC4(C)C3CCC21C (stereo partly shown) [Compound 184, 17-(Guanidinoacetoxy)-megostrol]	27, Progestin, androgenic
CC(C)c1cccc(C(C)C)c1C=NCC(=N)N [Compound 163, 2,6-Diisopropylbenzylideneaminomethylamidine]	14, 17, adrenergic antagonist, 22, 23
CC/C(=C(/CC)c1ccc(OC(=O)CNC(=N)N)cc1)c1ccc(OC(=O)CNC(=N)N)cc1 [Compound 127, 4,4′-(1,2-Diethyl-1,2-ethenediyl)bis-phenoldiguanidinoacetate ester]	27 (Estrogenic antagonist (breast cancer treatment))
N=C(N)c1ccc(C(=O)NC(=O)CCCCC2SCC3NC(=O)NC32)cc1 (stereo not shown) [Compound 233, N-(Hexahydro-2-oxo-1H-thieno[3,4-d]-imidazole-4-pentanoyl)-4-amidinobenzamide]	1, 2, 4, 6, 9, 10, 14, 15, 17, 23, 29 Antialopecia,
